According to patent US20230118688A1, “1H-PYRAZOLO[4,3-d]PYRIMIDINE COMPOUNDS AS TOLL-LIKE RECEPTOR 7 (TLR7) AGONISTS” (BRISTOL-MYERS SQUIBB COMPANY, priority 2020, published 2023):

Target: T1, human TLR7 (Homo sapiens, UniProt Q9NYK1)
T1 construct: host or cells: HEK-Blue TLR7 cells (engineered human embryonic kidney cells)
T1 sequence (Q9NYK1 27-1049): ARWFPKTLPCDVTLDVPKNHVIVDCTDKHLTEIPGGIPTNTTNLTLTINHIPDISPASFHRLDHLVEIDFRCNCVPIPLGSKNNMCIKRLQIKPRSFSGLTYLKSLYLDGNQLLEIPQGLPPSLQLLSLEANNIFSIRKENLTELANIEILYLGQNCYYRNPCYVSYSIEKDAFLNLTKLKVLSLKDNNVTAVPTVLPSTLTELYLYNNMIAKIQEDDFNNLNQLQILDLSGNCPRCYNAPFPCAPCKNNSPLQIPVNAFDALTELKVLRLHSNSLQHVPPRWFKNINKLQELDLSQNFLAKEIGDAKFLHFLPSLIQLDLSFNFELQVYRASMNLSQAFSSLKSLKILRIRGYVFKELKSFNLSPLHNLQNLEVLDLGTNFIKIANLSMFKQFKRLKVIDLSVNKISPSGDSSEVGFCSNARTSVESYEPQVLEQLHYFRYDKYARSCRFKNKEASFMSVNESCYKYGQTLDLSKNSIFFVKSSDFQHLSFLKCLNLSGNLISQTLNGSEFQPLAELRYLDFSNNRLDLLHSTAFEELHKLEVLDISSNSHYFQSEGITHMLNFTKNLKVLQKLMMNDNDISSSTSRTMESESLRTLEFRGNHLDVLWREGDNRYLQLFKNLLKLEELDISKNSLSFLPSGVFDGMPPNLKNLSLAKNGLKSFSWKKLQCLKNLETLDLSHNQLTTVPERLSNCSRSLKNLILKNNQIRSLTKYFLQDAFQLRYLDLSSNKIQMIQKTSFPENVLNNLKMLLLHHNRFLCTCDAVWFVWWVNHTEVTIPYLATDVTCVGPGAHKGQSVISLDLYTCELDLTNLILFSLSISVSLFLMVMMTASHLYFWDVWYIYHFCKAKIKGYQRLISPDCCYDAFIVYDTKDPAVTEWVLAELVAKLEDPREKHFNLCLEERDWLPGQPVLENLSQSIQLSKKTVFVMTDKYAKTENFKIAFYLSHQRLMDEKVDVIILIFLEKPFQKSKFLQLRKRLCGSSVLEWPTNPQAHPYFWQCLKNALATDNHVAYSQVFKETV
Experiment: Human TLR7 agonist activity reporter assay (HEK-Blue TLR7 cells, SEAP reporter)
Type: cell-based
Details: 18 h treatment, average where assay repeated, Table A1, read-out: hTLR7 Agonism EC50
Description: This procedure describes a method for assaying human TLR7 (hTLR7) agonist activity of the compounds disclosed in this specification.
HEK-Blue™ TLR7 cells were added to each well of a 384-well tissue-culture plate (15,000 cells per well) and incubated 16-18 h at 37° C., 5% CO2. Compounds (100 nl) were dispensed into wells containing the HEK-Blue™ TLR cells and the treated cells were incubated at 37° C., 5% CO2. After 18 h treatment ten microliters of freshly-prepared Quanti-Blue™ reagent (Invivogen) was added to each well, incubated for 30 min (37° C., 5% CO2) and SEAP levels measured using an Envision plate reader (OD=620 nm). The half maximal effective concentration values (EC50; compound concentration which induced a response halfway between the assay baseline and maximum) were calculated.

| SMILES | EC50 |
| --- | --- |
| CCC[C@@H](CCO)Nc1nc(N)nc2cnn(Cc3cc(CN[C@H]4COC[C@@H]4O)ccc3OC)c12 [Compound 184] | 339 nM |
| CCC[C@@H](CCO)Nc1nc(N)nc2cnn(Cc3cc(CN[C@@H]4COCC[C@H]4O)ccc3OC)c12 [Compound 180, (3R,4R)-3-[({3-[(5-amino-7-{[(3S)-1-hydroxyhexan-3-yl]amino}-1H-pyrazolo[4,3-d]pyrimidin-1-yl)methyl]-4-methoxyphenyl}methyl)-amino]oxan-4-ol] | 213 nM |
| CCCCNc1nc(N)nc2cnn(Cc3cc(CNC4CC5(CC5)C4)ccc3OC)c12 [Compound 111, N7-butyl-1-({2-methoxy-5-[({spiro[2.3]hexan-5-yl}amino)methyl]phenyl}methyl)-1H-pyrazolo[4,3-d]pyrimidine-5,7-diamine] | 358 nM |
| CCCCNc1nc(N)nc2cnn(Cc3cc(CNC4CCOCC4)ccc3OC)c12 [Compound 101, N7-butyl-1-[(2-methoxy-5-{[(oxan-4-yl)amino]-methyl}phenyl)methyl]-1H-pyrazolo[4,3-d]pyrimidine-5,7-diamine] | 352 nM |
| CCCCNc1nc(N)nc2cnn(Cc3cc(CN4CC5CCS(=O)(=O)C5C4)ccc3OC)c12 (stereo not shown) [Compound 113, 5-[(3-{[5-amino-7-(butyl-amino)-1H-pyrazolo[4,3-d]pyrimidin-1-yl]methyl}-4-methoxyphenyl)methyl]-hexahydro-2H-1λ6-thieno-[2,3-c]pyrrole-1,1-dione] | 493 nM |
| CCC[C@@H](CCO)Nc1nc(N)nc2cnn(Cc3cc(CN[C@@H]4CCOC[C@H]4O)ccc3OC)c12 [Compound 183, (3S,4R)-4-[({3-[(5-amino-7-{[(3S)-1-hydroxyhexan-3-yl]amino}-1H-pyrazolo[4,3-d]pyrimidin-1-yl)methyl]-4-methoxyphenyl}methyl)-amino]oxan-3-ol] | 479 nM |
| CCCCNc1nc(N)nc2cnn(Cc3cc(CN4CC5CCCC(C5)C4)ccc3OC)c12 [Compound 104, 1-{[5-({3-azabicyclo-[3.3.1]nonan-3-yl}methyl)-2-methoxyphenyl]methyl}-N7-butyl-1H-pyrazolo[4,3-d]pyrimidine-5,7-diamine] | 630 nM |
| CCC[C@@H](CCO)Nc1nc(N)nc2cnn(Cc3cc(CN[C@@H]4COC[C@H]4O)ccc3OC)c12 [Compound 181, (3S,4R)-4-[({3-[(5-amino-7-{[(3S)-1-hydroxyhexan-3-yl]amino}-1H-pyrazolo[4,3-d]pyrimidin-1-yl)methyl]-4-methoxyphenyl}methyl)-amino]oxolan-3-ol] | 308 nM |
| CCC[C@@H](CCO)Nc1nc(N)nc2cnn(Cc3cc(CN[C@H]4CCOC[C@H]4O)ccc3OC)c12 [Compound 179, (3S,4S)-4-[({3-[(5-amino-7-{[(3S)-1-hydroxyhexan-3-yl]amino}-1H-pyrazolo[4,3-d]pyrimidin-1-yl)methyl]-4-methoxyphenyl}methyl)-amino]oxan-3-ol] | 405 nM |
| CCCCNc1nc(N)nc2cnn(Cc3cc(CN4CC5CCCCCC54)ccc3OC)c12 (stereo not shown) [Compound 106, 1-{[5-({8-azabicyclo-[5.2.0]nonan-8-yl}methyl)-2-methoxyphenyl]methyl}-N7-butyl-1H-pyrazolo[4,3-d]pyrimidine-5,7-diamine] | 502 nM |
| CCCCNc1nc(N)nc2cnn(Cc3cc(CN4CCC5CCC(C5)C4)ccc3OC)c12 (stereo not shown) [Compound 102, 1-{[5-({3-azabicyclo-[4.2.1]nonan-3-yl}methyl)-2-methoxyphenyl]methyl}-N7-butyl-1H-pyrazolo[4,3-d]pyrimidine-5,7-diamine] | 658 nM |
| CCC[C@@H](CCO)Nc1nc(N)nc2cnn(Cc3cc(CN[C@H]4COCC[C@@H]4O)ccc3OC)c12 [Compound 182, (3S,4S)-3-[({3-[(5-amino-7-{[(3S)-1-hydroxyhexan-3-yl]amino}-1H-pyrazolo[4,3-d]pyrimidin-1-yl)methyl]-4-methoxyphenyl}methyl)-amino]oxan-4-ol] | 197 nM |
| CCCCNc1nc(N)nc2cnn(Cc3cc(CN4CCC4)ccc3OC)c12 [Compound 115, 1-({5-[(azetidin-1-yl)methyl]-2-methoxyphenyl}-methyl)-N7-butyl-1H-pyrazolo[4,3-d]pyrimidine-5,7-diamine] | 172 nM |
| CCCCNc1nc(N)nc2cnn(Cc3cc(CNC45CC(C4)C5)ccc3OC)c12 [Compound 110, 1-({5-[({bicyclo[1.1.1]-pentan-1-yl}amino)methyl]-2-methoxyphenyl}-methyl)-N7-butyl-1H-pyrazolo[4,3-d]pyrimidine-5,7-diamine] | 447 nM |
| CCCCNc1nc(N)nc2cnn(Cc3cc(CN4CC(O)C4)ccc3OC)c12 [Compound 108, 1-[(3-{[5-amino-7-(butyl-amino)-1H-pyrazolo[4,3-d]pyrimidin-1-yl]methyl}-4-methoxyphenyl)me-thyl]azetidin-3-ol] | 146 nM |
| CCCCNc1nc(N)nc2cnn(Cc3cc(CN4CCC5CCC(C5)C4)ccc3OC)c12 (stereo not shown) [Compound 103, 1-{[5-({3-azabicyclo-[4.2.1]nonan-3-yl}methyl)-2-methoxyphenyl]methyl}-N7-butyl-1H-pyrazolo[4,3-d]pyrimidine-5,7-diamine] | 193 nM |
| CCCCNc1nc(N)nc2cnn(Cc3cc(CN4CC5CCCC(C4)C5O)ccc3OC)c12 (stereo not shown) [Compound 107, 3-[(3-{[5-amino-7-(butyl-amino)-1H-pyrazolo[4,3-d]pyrimidin-1-yl]methyl}-4-methoxyphenyl)methyl]-3-aza bicyclo[3.3.1]nonan-9-ol] | 750 nM |
| CCCCNc1nc(N)nc2cnn(Cc3cc(CN4CCN(C)CC4)ccc3OC)c12 [Compound 109, N7-butyl-1-({2-methoxy-5-[(4-methylpiperazin-1-yl)methyl]phenyl}methyl)-1H-pyrazolo[4,3-d] pyrimidine-5,7-diamine] | 51.3 nM |
| CCCCNc1nc(N)nc2cnn(Cc3cc(CNC(C)(C)C)ccc3OC)c12 [Compound 112] | 249 nM |
